Assays:
Assay type in all cases: in vivo
[1] = system: green foxtail (Setaria viridis, SETVI); experiment: Pre-emerge greenhouse herbicide test, phytotoxicity rating; details: Setaria viridis, pre-emergence, 336 h, 14 days after application, rating scale 0-100; for pest or weed control at 125 g/ha: Rate 125 g al/ha; for pest or weed control at 500 g/ha: Rate 500 g al/ha
Method in brief: (§1)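 Visual 0–100 injury rating (100 = all plants dead) taken 14 days after treatment. Rates of 125–1000 g ai/ha in acetone, 187 l/ha, were sprayed onto soil one day post-sowing; pots were surface-watered to incorporate, then bottom-watered.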

[2] = system: ivyleaf morningglory (Ipomoea hederacea, IPOHE); experiment: as above; details: Ipomoea, pre-emergence, 336 h, 14 days after application, rating scale 0-100; for pest or weed control at 125 g/ha: Rate 125 g al/ha; for pest or weed control at 500 g/ha: Rate 500 g al/ha
Method in brief: as §1

[3] = system: lambsquarters (Chenopodium album, CHEAL); experiment: as above; details: Chenopodium album, pre-emergence, 336 h, 14 days after application, rating scale 0-100; for pest or weed control at 125 g/ha: Rate 125 g al/ha; for pest or weed control at 500 g/ha: Rate 500 g al/ha
Method in brief: as §1

[4] = system: large crabgrass (Digitaria sanguinalis, DIGSA); experiment: as above; details: Digitaria sanguinalis, pre-emergence, 336 h, 14 days after application, rating scale 0-100; for pest or weed control at 125 g/ha: Rate 125 g al/ha; for pest or weed control at 500 g/ha: Rate 500 g al/ha
Method in brief: as §1

[5] = system: redroot pigweed (Amaranthus retroflexus, AMARE); experiment: as above; details: Amaranthus retroflexus, pre-emergence, 336 h, 14 days after application, rating scale 0-100; for pest or weed control at 125 g/ha: Rate 125 g al/ha; for pest or weed control at 500 g/ha: Rate 500 g al/ha
Method in brief: as §1

[6] = system: velvetleaf (Abutilon theophrasti, ABUTH); experiment: as above; details: Abutilon theophrasti, pre-emergence, 336 h, 14 days after application, rating scale 0-100; for pest or weed control at 125 g/ha: Rate 125 g al/ha; for pest or weed control at 500 g/ha: Rate 500 g al/ha
Method in brief: as §1

[7] = system: Johnsongrass (Sorghum halepense, SORHA); experiment: Post-emerge greenhouse herbicide test, phytotoxicity rating; details: Sorghum halepense, post-emergence, 336 h, 14 days after application, scale 0-100; for pest or weed control at 63 g/ha: rate 63 g ai/ha; for pest or weed control at 500 g/ha: rate 500 g ai/ha
Method in brief: (§2)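 Scores use a 0 (no damage) to 100 (complete kill) scale, taken 14 days after a foliar spray. Acetone solutions with 0.25% v/v non-ionic surfactant were applied by track sprayer at 187 l/ha and 63-1000 g ai/ha to bottom-watered 2-3 leaf plants.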

[8] = system: barnyardgrass (Echinochloa crusgalli, ECHCG); experiment: as above; details: Echinochloa crus-galli, post-emergence, 336 h, 14 days after application, scale 0-100; for pest or weed control at 63 g/ha: rate 63 g ai/ha; for pest or weed control at 500 g/ha: rate 500 g ai/ha
Method in brief: as §2

[9] = system: green foxtail (Setaria viridis, SETVI); experiment: as above; details: Setaria viridis, post-emergence, 336 h, 14 days after application, scale 0-100; for pest or weed control at 63 g/ha: rate 63 g ai/ha; for pest or weed control at 500 g/ha: rate 500 g ai/ha
Method in brief: as §2

[10] = system: ivyleaf morningglory (Ipomoea hederacea, IPOHE); experiment: as above; details: Ipomoea, post-emergence, 336 h, 14 days after application, scale 0-100; for pest or weed control at 63 g/ha: rate 63 g ai/ha; for pest or weed control at 500 g/ha: rate 500 g ai/ha
Method in brief: as §2

[11] = system: lambsquarters (Chenopodium album, CHEAL); experiment: as above; details: Chenopodium album, post-emergence, 336 h, 14 days after application, scale 0-100; for pest or weed control at 63 g/ha: rate 63 g ai/ha; for pest or weed control at 500 g/ha: rate 500 g ai/ha
Method in brief: as §2

[12] = system: large crabgrass (Digitaria sanguinalis, DIGSA); experiment: as above; details: Digitaria sanguinalis, post-emergence, 336 h, 14 days after application, scale 0-100; for pest or weed control at 63 g/ha: rate 63 g ai/ha; for pest or weed control at 500 g/ha: rate 500 g ai/ha
Method in brief: as §2

[13] = system: redroot pigweed (Amaranthus retroflexus, AMARE); experiment: as above; details: Amaranthus retroflexus, post-emergence, 336 h, 14 days after application, scale 0-100; for pest or weed control at 63 g/ha: rate 63 g ai/ha; for pest or weed control at 500 g/ha: rate 500 g ai/ha
Method in brief: as §2

[14] = system: sicklepod (Cassia obtusifolia, CASOB); experiment: as above; details: Senna obtusifolia, post-emergence, 336 h, 14 days after application, scale 0-100; for pest or weed control at 63 g/ha: rate 63 g ai/ha; for pest or weed control at 500 g/ha: rate 500 g ai/ha
Method in brief: as §2

[15] = system: velvetleaf (Abutilon theophrasti, ABUTH); experiment: as above; details: Abutilon theophrasti, post-emergence, 336 h, 14 days after application, scale 0-100; for pest or weed control at 63 g/ha: rate 63 g ai/ha; for pest or weed control at 500 g/ha: rate 500 g ai/ha
Method in brief: as §2

Compound | pest or weed control at 125 g/ha [1] [%] | pest or weed control at 500 g/ha [1] [%] | pest or weed control at 125 g/ha [2] [%] | pest or weed control at 500 g/ha [2] [%] | pest or weed control at 125 g/ha [3] [%] | pest or weed control at 500 g/ha [3] [%] | pest or weed control at 125 g/ha [4] [%] | pest or weed control at 500 g/ha [4] [%] | pest or weed control at 125 g/ha [5] [%] | pest or weed control at 500 g/ha [5] [%] | pest or weed control at 125 g/ha [6] [%] | pest or weed control at 500 g/ha [6] [%] | pest or weed control at 63 g/ha [7] [%] | pest or weed control at 500 g/ha [7] [%] | pest or weed control at 63 g/ha [8] [%] | pest or weed control at 500 g/ha [8] [%] | pest or weed control at 63 g/ha [9] [%] | pest or weed control at 500 g/ha [9] [%] | pest or weed control at 63 g/ha [10] [%] | pest or weed control at 500 g/ha [10] [%] | other results
Nn1c(C(F)(F)F)cc(=S)n(-c2cc(Oc3ccc(Cl)cn3)c(Cl)cc2F)c1=O [Compound 9-28, 1-amino-3-[4-chloro-2-fluoro-5-(5-chloro-2-pyridyloxy)phenyl]-6-trifluoromethyl-1,2,3,4tetrahydro-2-oxo-4-thioxopyrimidine] | 100 | 100 | 40 | 70 | 100 | 100 | 70 | 100 | 100 | 100 | 100 | 100 | 0 | 30 | 0 | 10 | 25 | 50 | 95 | 100 | pest or weed control at 63 g/ha [11]: 80%; pest or weed control at 500 g/ha [11]: 100%; pest or weed control at 63 g/ha [12]: 0%; pest or weed control at 500 g/ha [12]: 0%; pest or weed control at 63 g/ha [13]: 90%; pest or weed control at 500 g/ha [13]: 100%; pest or weed control at 63 g/ha [14]: 10%; pest or weed control at 500 g/ha [14]: 50%; pest or weed control at 63 g/ha [15]: 90%; pest or weed control at 500 g/ha [15]: 100%
N#Cc1cccnc1Oc1cc(-n2c(=O)cc(C(F)(F)F)n(N)c2=O)c(F)cc1Cl [Compound 9-9, 1-Amino-3-[4-chloro-2-fluoro-5-(3-cyano-2-pyridyloxy)phenyl]-6-trifluoromethyl-1,2,3,4-tetrahydropyrimidine-2,4-dione] | 100 | 100 | 100 | 100 | 100 | 100 | 100 | 100 | 100 | 100 | 100 | 100 | 40 | 100 | 10 | 100 | 20 | 90 | 90 | 100 | pest or weed control at 63 g/ha [11]: 90%; pest or weed control at 500 g/ha [11]: 100%; pest or weed control at 63 g/ha [12]: 10%; pest or weed control at 500 g/ha [12]: 90%; pest or weed control at 63 g/ha [13]: 100%; pest or weed control at 500 g/ha [13]: 100%; pest or weed control at 63 g/ha [14]: 90%; pest or weed control at 500 g/ha [14]: 100%; pest or weed control at 63 g/ha [15]: 100%; pest or weed control at 500 g/ha [15]: 100%
Nn1c(C(F)(F)F)cc(=O)n(-c2cc(Oc3ncccc3[N+](=O)[O-])c(Cl)cc2F)c1=O [Compound 9-1, 1-amino-3-[4-chloro-2-fluoro-5-(3-nitro-2-pyridyloxy)phenyl]-6-trifluoromethyl-1,2,3,4-tetrahydropyrimidine-2,4-dione] | 99 | 100 | 100 | 100 | 100 | 100 | 40 | 100 | 100 | 100 | 100 | 100 | 70 | 99 | 30 | 100 | 20 | 90 | 100 | 100 | pest or weed control at 63 g/ha [11]: 95%; pest or weed control at 500 g/ha [11]: 100%; pest or weed control at 63 g/ha [12]: 20%; pest or weed control at 500 g/ha [12]: 50%; pest or weed control at 63 g/ha [13]: 100%; pest or weed control at 500 g/ha [13]: 100%; pest or weed control at 63 g/ha [14]: 30%; pest or weed control at 500 g/ha [14]: 30%; pest or weed control at 63 g/ha [15]: 100%; pest or weed control at 500 g/ha [15]: 100%
